From the supplement of paper PMC10307832

Assays:
Assay in all cases: relative viability (nuclei count vs DMSO), 5 days (fraction); higher = more cells survive
AZ23 = compound: CC(C)Oc1cc(Nc2nc(N[C@@H](C)c3ccc(F)cn3)ncc2Cl)n[nH]1 [AZ23]
Procedure, shortened: (§1)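 On vehicle-anchored 1536-well plates, lung cancer cell lines held overnight at 37 °C were pinned with five library-drug doses (not always all listed) spaced by √10. With no medium change over 5 days, they were then fixed, permeabilised and Hoechst-stained in one step and imaged at 4×. MetaXpress counted nuclei, and viability is the median across plates of treated-well over vehicle-well nuclei. Acceptance needed control CV below 25% and at least one doubling.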

Vatalanib = compound: Clc1ccc(Nc2nnc(Cc3ccncc3)c3ccccc23)cc1 [Vatalanib]
Procedure, shortened: as §1

HG-5-88-01 = compound: CC(C)S(=O)(=O)C1=CC=CC=C1NC2=NC(=NC(=C2Cl)N)NC3=C(C=C(C=C3)N4CCC(CC4)C(=O)N)OC [HG-5-88-01]
Procedure, shortened: as §1

[1] = compound: C[C@@H]1CN(CC(=O)Nc2ccc3c(c2)Cc2cccc(-c4cc(=O)cc(N5CCOCC5)o4)c2S3)C[C@H](C)O1
Procedure, shortened: as §1

Embelin = compound: CCCCCCCCCCCC1=C(O)C(=O)C=C(O)C1=O [Embelin]
Procedure, shortened: as §1

Row | Cell Line | relative viability (AZ23; 0.01 µM) | relative viability (AZ23; 0.03162 µM) | relative viability (AZ23; 0.3162 µM) | relative viability (Vatalanib; 0.04 µM) | relative viability (Vatalanib; 0.1265 µM) | relative viability (Vatalanib; 0.4 µM) | relative viability (Vatalanib; 1.265 µM) | relative viability (Vatalanib; 4 µM) | relative viability (HG-5-88-01; 0.04 µM) | relative viability (HG-5-88-01; 0.1265 µM) | relative viability (HG-5-88-01; 0.4 µM) | relative viability (HG-5-88-01; 1.265 µM) | relative viability (HG-5-88-01; 4 µM) | relative viability ([1]; 0.04 µM) | relative viability ([1]; 0.1265 µM) | relative viability ([1]; 0.4 µM) | relative viability ([1]; 4 µM) | relative viability (Embelin; 0.08 µM) | relative viability (Embelin; 0.8 µM) | relative viability (Embelin; 2.53 µM) | relative viability (Embelin; 8 µM)
1 | NCI-H358 | 1.03 | 1.03 | 1.04 | 1.02 | 0.911 | 0.986 | 0.962 | 0.955 | 0.88 | 0.879 | 0.794 | 0.34 | 0.311 | 0.989 | 0.905 | 0.958 | 0.673 | 1.02 | 0.982 | 1.09 | 1.15
2 | NCI-H441 | 1.43 | 1.01 | 1.06 | 1.16 | 0.922 | 1.08 | 1.08 | 0.933 | 1.09 | 1.33 | 1.24 | 0.925 | 0.819 | 1.2 | 0.787 | 1.04 | 0.948 | 1.05 | 1.19 | 1.45 | 1.02
3 | NCI-H460 | 1.03 | 1.08 | 1.07 | 1.03 | 0.924 | 1.01 | 0.947 | 0.984 | 1 | 0.953 | 0.954 | 0.99 | 1.03 | 0.934 | 0.963 | 1.06 | 0.938 | 1.01 | 1.03 | 1.04 | 0.997
4 | NCI-H520 | 0.915 | 1.11 | 0.92 | 1.07 | 0.92 | 1.08 | 0.881 | 0.841 | 0.994 | 1.05 | 0.959 | 1 | 1.02 | 0.797 | 1.05 | 0.901 | 0.94 | 1.07 | 1.1 | 1.11 | 0.931
5 | NCI-H522 | 1.04 | 1.12 | 1.09 | 1.1 | 0.767 | 0.966 | 0.917 | 0.876 | 1.04 | 0.903 | 0.849 | 0.804 | 0.706 | 0.77 | 1 | 1.11 | 0.864 | 1.01 | 1.13 | 1.15 | 0.821
6 | NCI-H596 | 1.07 | 0.915 | 0.962 | 0.97 | 1.15 | 1.06 | 0.954 | 0.912 | 1.01 | 0.933 | 1.04 | 0.994 | 0.576 | 0.947 | 0.982 | 0.783 | 0.885 | 0.981 | 0.986 | 1.16 | 0.732
7 | NCI-H647 | 0.949 | 1.04 | 1.22 | 1 | 0.943 | 0.933 | 0.916 | 0.85 | 1 | 0.97 | 0.832 | 0.971 | 1.1 | 0.882 | 0.976 | 1 | 0.734 | 0.985 | 1.25 | 1.08 | 0.914
8 | NCI-H650 | 0.867 | 1.09 | 0.921 | 1.01 | 0.885 |  | 0.779 | 0.847 | 1.04 | 0.993 | 0.829 | 0.902 | 0.576 | 0.944 | 0.95 | 1.07 | 0.722 | 0.821 | 1.09 | 0.909 | 0.739
